Measurements as given in PMC9264368, “Structural Analysis and Development of Notum Fragment Screening Hits” (ACS Chemical Neuroscience, 2022).
In brackets after ≈: the same amount, converted by molar mass. Read-outs that look alike come from different tables or passages of the source.

Columns and labels:
[1] = set-up: method as in PMID 33124429; details: mouse; cited from earlier work
[2] = tested on: Wnt/β-catenin signaling in the presence of Notum; details: read-out: EC50, restoration of Wnt/β-catenin signaling, TCF/LEF reporter
[3] = set-up: method as in PMID 35536179; details: mouse liver microsomes; cited from earlier work
[4] = set-up: method as in PMID 35536179; details: human liver microsomes; cited from earlier work
MDCK-MDR1 = tested on: MDCK-MDR1; set-up: method as in PMID 35536179; details: cited from earlier work
Notum [5] = molecular target: T1, Notum (Homo sapiens, UniProt Q6P988, C330S); assay: biochemical
T1 sequence (Q6P988 81-451 C330S): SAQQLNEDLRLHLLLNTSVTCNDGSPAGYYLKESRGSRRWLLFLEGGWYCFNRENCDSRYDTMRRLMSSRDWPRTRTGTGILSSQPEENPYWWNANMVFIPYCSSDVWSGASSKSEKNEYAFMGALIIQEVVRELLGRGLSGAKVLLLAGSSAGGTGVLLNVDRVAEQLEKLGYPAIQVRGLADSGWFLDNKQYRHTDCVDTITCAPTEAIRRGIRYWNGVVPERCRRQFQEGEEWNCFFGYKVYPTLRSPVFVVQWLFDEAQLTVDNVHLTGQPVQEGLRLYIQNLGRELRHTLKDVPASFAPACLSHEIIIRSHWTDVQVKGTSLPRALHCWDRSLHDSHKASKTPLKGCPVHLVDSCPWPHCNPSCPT

[6] = set-up: method as in PMID 35536179; details: cited from earlier work
Notum [7] = molecular target: T1, Notum; details: for LE (ligand efficiency): LE = 1.4(−pIC50)/HAC; for LLE (lipophilic ligand efficiency): LLE = pIC50 – clogP; for LE / LLE: supplementary CSV
[8] = tested on: Wnt/β-catenin signaling in the presence of Notum; set-up: method as in PMID 35536179; details: read-out: EC50, cell-based reporter (TCF/LEF) assay; cited from earlier work
[9] = Notum IC50, OPTS substrate, 10-point curves 30 nM to 1 mM, mean ± s.d. of N = 2–4 unless stated, Table 1 and figures
[10] = pIC50, Table 1, Notum OPTS assay

| SMILES | IC50 (Notum [5]; [9]) | LE (ligand efficiency) (Notum [7]) | LLE (lipophilic ligand efficiency) (Notum [7]) | LE (Notum [7]) | LLE (Notum [7]) | further results |
| --- | --- | --- | --- | --- | --- | --- |
| Oc1nnc(-c2ccc(Cl)c(C(F)(F)F)c2)o1 [7a] |  |  |  |  |  | brain penetration [1]: only partial; plasma exposure [1]: good |
| OCc1cn(-c2ccc(Cl)c(C(F)(F)F)c2)nn1 [7b, (1-(4-Chloro-3-(trifluoromethyl)phenyl)-1H-1,2,3-triazol-4-yl)methanol] |  |  |  |  |  | EC50 [2]: 1.6 ± 1.2 µM |
| OCc1cn(-c2ccc(Cl)c(Cl)c2)nn1 [compound 7] | < 10 µM |  |  |  |  | MLM Cli [3]: 88 µL/min/mg protein; HLM Cli [4]: 12 µL/min/mg protein; Papp AB (MDCK-MDR1; MDCK-MDR1, AB): 57 × 10^–6 cm/s; Papp BA (MDCK-MDR1; MDCK-MDR1, BA): 59 × 10^–6 cm/s; aqueous solubility [6]: 100 mg/mL (≈ 410 mM) |
| c1ccc(CNCc2ccc3c(c2)OCO3)nc1 [compound 28, 1-(Benzo[d][1,3]dioxol-5-yl)-N-(pyridine-2-ylmethyl)methanamine] | 54 ± 6.2 µM | 0.33 | 3.2 | 0.33 | 3.2 |  |
| Nc1nonc1N1CCCCC1 [compound 20] | 110 ± 21 µM | 0.46 | 2.7 | 0.46 | 2.7 | IC50 (Notum [5]; [10]): 126 µM |
| Cc1ccc(CN(C)Cc2ccccc2)o1 [compound 21] | 930 ± 69 µM | 0.26 | -0.4 | 0.26 | -0.4 |  |
| Cl.Oc1c(CN2CCOCC2)ccc2ccccc12 [compound 37] | 58 ± 19 µM | 0.33 | 1.9 | 0.33 | 1.9 |  |
| COCC(=O)NCc1ccccc1 [compound 41] | 68 ± 5.4 µM | 0.45 | 3.2 | 0.45 | 3.2 |  |
| CCOc1cccc(-c2nnc(N)s2)c1 [compound 22] | 93 ± 7 µM | 0.38 | 1.8 | 0.38 | 1.8 | IC50 (Notum [5]; [10]): 100 µM |
| COc1ccc(-c2cc[nH]n2)c(O)c1 [compound 17] | 34 ± 5.7 µM | 0.51 | 2.9 | 0.51 | 2.9 | IC50 (Notum [5]; [10]): 31.6 µM |
| c1cnc(Oc2ccc(-c3cc[nH]n3)cc2)nc1 [compound 5, 2-[4-(1H-Pyrazol-3-yl)phenoxy]pyrimidine] | 480 ± 82 µM | 0.25 | 1.3 | 0.25 | 1.3 |  |
| FC(F)(F)c1c(Cl)ccc(-n2ccnn2)c1Cl [7d] |  |  |  |  |  | EC50 [8]: 0.11 ± 0.1 µM |
| Nc1ccc(NCc2cccnc2)c(C(=O)O)c1 [compound 18] | 63 ± 12 µM | 0.32 | 3.0 | 0.32 | 3 |  |
| COCC(=O)Nc1nc(-c2ccccc2)cs1 [compound 35] | 120 ± 24 µM | 0.32 | 1.6 | 0.32 | 1.6 |  |
| N#CNc1nc2ccccc2[nH]1 [compound 15] | 17 ± 0.9 µM | 0.56 | 3.5 |  | 3.5 |  |
